Results on two compounds are retold here after PubChem BioAssay AID1259407 (Chemical Carcinogenesis Research Information System (CCRIS), 2018).

Calls of active or inactive are those of the source. No rule for the calls is given here.

The subject of the data set is CCRIS mutagenicity, Ames/micronucleus/aberration tests. Nature of the data set: CCRIS mutagenicity studies.

As to `N#CCCN`, the mutagenic call is “inactive; negative” (Test System: AMES SALMONELLA TYPHIMURIUM, Strain/Indicator: TA98, Metabolic Activation: HAMSTER, LIVER, S-9, AROCLOR 1254, Method: STANDARD PLATE); “inactive; negative” (Test System: AMES SALMONELLA TYPHIMURIUM, Strain/Indicator: TA98, Metabolic Activation: NONE, Method: STANDARD PLATE); “inactive; negative” (Test System: AMES SALMONELLA TYPHIMURIUM, Strain/Indicator: TA98, Metabolic Activation: RAT, LIVER, S-9, AROCLOR 1254, Method: STANDARD PLATE); “inactive; negative” (Test System: AMES SALMONELLA TYPHIMURIUM, Strain/Indicator: TA100, Metabolic Activation: HAMSTER, LIVER, S-9, AROCLOR 1254, Method: STANDARD PLATE); “inactive; negative” (Test System: AMES SALMONELLA TYPHIMURIUM, Strain/Indicator: TA100, Metabolic Activation: NONE, Method: STANDARD PLATE); “inactive; negative” (Test System: AMES SALMONELLA TYPHIMURIUM, Strain/Indicator: TA100, Metabolic Activation: RAT, LIVER, S-9, AROCLOR 1254, Method: STANDARD PLATE). Moreover, the mutagenic call is “inactive; negative” (Test System: AMES SALMONELLA TYPHIMURIUM, Strain/Indicator: TA1535, Metabolic Activation: HAMSTER, LIVER, S-9, AROCLOR 1254, Method: STANDARD PLATE); “inactive; negative” (Test System: AMES SALMONELLA TYPHIMURIUM, Strain/Indicator: TA1535, Metabolic Activation: NONE, Method: STANDARD PLATE); “inactive; negative” (Test System: AMES SALMONELLA TYPHIMURIUM, Strain/Indicator: TA1535, Metabolic Activation: RAT, LIVER, S-9, AROCLOR 1254, Method: STANDARD PLATE); “inactive; negative” (Test System: AMES SALMONELLA TYPHIMURIUM, Strain/Indicator: TA1537, Metabolic Activation: HAMSTER, LIVER, S-9, AROCLOR 1254, Method: STANDARD PLATE); “inactive; negative” (Test System: AMES SALMONELLA TYPHIMURIUM, Strain/Indicator: TA1537, Metabolic Activation: NONE, Method: STANDARD PLATE); “inactive; negative” (Test System: AMES SALMONELLA TYPHIMURIUM, Strain/Indicator: TA1537, Metabolic Activation: RAT, LIVER, S-9, AROCLOR 1254, Method: STANDARD PLATE). In addition, the mutagenic call is “inactive; negative” (Test System: AMES SALMONELLA TYPHIMURIUM, Strain/Indicator: TA1538, Metabolic Activation: HAMSTER, LIVER, S-9, AROCLOR 1254, Method: STANDARD PLATE); “inactive; negative” (Test System: AMES SALMONELLA TYPHIMURIUM, Strain/Indicator: TA1538, Metabolic Activation: NONE, Method: STANDARD PLATE); “inactive; negative” (Test System: AMES SALMONELLA TYPHIMURIUM, Strain/Indicator: TA1538, Metabolic Activation: RAT, LIVER, S-9, AROCLOR 1254, Method: STANDARD PLATE); “inactive; inconclusive (previous evaluation negative)” (Test System: Mouse lymphoma, Strain/Indicator: L5178Y (tk+/tk-), Metabolic Activation: None, Method: Suspension/plate); “inactive; negative” (Test System: Mouse lymphoma, Strain/Indicator: L5178Y (tk+/tk-), Metabolic Activation: Rat, Liver, S-9, Aroclor 1254, Method: Suspension/plate).
`Cc1cc2ccccc2c2ccc3c(c12)[C@H]1O[C@H]1[C@@H](O)[C@@H]3O`: the mutagenic call (Test System: AMES SALMONELLA TYPHIMURIUM, Strain/Indicator: TA100, Metabolic Activation: NONE, Method: PREINCUBATION) was “active; positive”.
